Measurements published in patent US20120016009A1, “Optimized Methods For Delivery Of DSRNA Targeting The PCSK9 Gene” (priority 2008, published 2012).
pIC50: −log10 of the molar value. In the oligonucleotide strings, read from the 5' end, every base follows the letter of its sugar. An asterisk marks phosphorothioate; unmarked linkages are phosphodiester. Other units and linkages are bracketed, terminal groups are in braces. A string of capitals states the bases alone. d = 2'-deoxy (DNA); m = 2'-O-methyl; r = 2'-OH (RNA)

Assays:
PCSK9 mRNA [1] = experiment: In vitro screening of modified dsRNAs targeted to PCSK9 (Table 2b; cell type not given); format: cell-based; conditions: 30 nM siRNA
Method in brief: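 siRNA at 30 nM (single-dose screen) was transfected with lipofectamine 2000 into cells seeded at 2.0×10^4/well. After 24 h, cells were lysed and PCSK9 mRNA measured by Quantigene, normalized to GAPDH (n=8). Values are % remaining PCSK9 mRNA relative to cells given an unrelated control siRNA.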

[2] = tested on: primary human blood monocytes (hPBMC); experiment: TNF-alpha induction in primary human blood monocytes (hPBMC); format: cell-based; conditions: for TNF-alpha induction: human primary blood monocytes; for TNF-α Induction: second word of the cell IFN-α/TNF-α Induction (Yes/No)
Protocol: (§1) siRNAs were tested for activation of the immune system in primary human blood monocytes (hPBMC). […] However, chemically modified versions of this sequence (AD-1a2, AD-1a3, AD-1a5, and AD-1a4) as well as AD-2a1 were negative for both IFN-alpha and TNF-alpha induction in these same assays (see Table 5, and FIGS. 13A and 13B). Thus chemical modifications are capable of dampening both IFN-alpha and TNF-alpha responses to siRNA molecules.

[3] = tested on: primary human blood monocytes (hPBMC); experiment: IFN-alpha induction in primary human blood monocytes (hPBMC); format: cell-based; conditions: for IFN-α Induction: first word of the cell IFN-α/TNF-α Induction (Yes/No); for IFN-alpha induction: human primary blood monocytes
Protocol: as §1

PCSK9 mRNA [4] = experiment: PCSK9 siRNA screening in HepG2 cells (lipofectamine 2000 transfection, PCSK9 mRNA by Quantigene, normalized to GAP-DH); format: cell-based, human; conditions: for Mean percent remaining mRNA transcript at siRNA concentration/in cell type 3 nM/HepG2: 3 nM siRNA; for Mean percent remaining mRNA transcript at siRNA concentration/in cell type 30 nM/HepG2: 30 nM siRNA
Method in brief: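 HepG2 cells, grown in MEM with 10% fetal calf serum, antibiotics, non-essential amino acids and sodium pyruvate at 37° C. and 5% CO2, were plated at 2.0×10^4 cells/well in 96-well plates and transfected directly with siRNA using lipofectamine 2000. After 24 hours, cells were lysed and PCSK9 mRNA was measured by Quantigene and normalized to GAP-DH mRNA.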

PCSK9 mRNA [5] = experiment: PCSK9 silencing in primary cynomolgus monkey hepatocytes (dilution series from 30 nM, PCSK9/GAPDH mRNA); format: cell-based; conditions: for pIC50: PCSK9 silencing in primary cynomolgus monkey hepatocytes, approximate IC50, read-out: Primary Cynomolgus Monkey Hepatocytes ~IC50; for IC50: primary cynomolgus monkey hepatocytes, read-out: IC50 in Cynomolgous monkey Hepatocyte [nM]s
Protocol: Primary cynomolgus monkey hepatocytes (cryopreserved) were obtained from In vitro Technologies, Inc. (Baltimore, Md., USA, cat No M00305) and cultured in InVitroGRO CP Medium (cat No Z99029) at 37° C. in an atmosphere with 5% CO2 in a humidified incubator.
For transfection with siRNA, primary cynomolgus monkey cells were seeded on Collagen coated plates (Fisher Scientific, cat. No. 08-774-5) at a density of 3.5×10^4 cells/well in 96-well plates and transfected directly. Transfection of siRNA (eight 2-fold dilution series starting from 30 nM) in duplicates was carried out with lipofectamine 2000 (Invitrogen GmbH, Karlsruhe, Germany, cat. No. 11668-019) as described by the manufacturer.
16 hours after transfection medium was changed to fresh InVitroGRO CP Medium with Torpedo Antibiotic Mix (In vitro Technologies, Inc, cat. No Z99000) added.
24 hours after medium change primary cynomolgus monkey cells were lysed and PCSK9 mRNA levels were quantified with the Quantigene Explore Kit (Genosprectra, Dumbarton Circle Fremont, USA, cat. No. QG-000-02) according to the protocol. PCSK9 mRNA levels were normalized to GAPDH mRNA. Normalized PCSK9/GAPDH ratios were then compared to PCSK9/GAPDH ratio of lipofectamine 2000 only control.

Substance	Remaining mRNA in % of controls at siRNA conc. of 30 nM (PCSK9 mRNA [1]) [%]	TNF-alpha induction [2]	TNF-alpha induction ([2]; listed as AD-1a1)	TNF-α Induction [2]	IFN-α Induction [3]	IFN-alpha induction [3]	IFN-alpha induction ([3]; listed as AD-1a1)	pIC50 (PCSK9 mRNA [4])	Mean percent remaining mRNA transcript at siRNA concentration/in cell type 3 nM/HepG2 (PCSK9 mRNA [4]) [%]	Mean percent remaining mRNA transcript at siRNA concentration/in cell type 30 nM/HepG2 (PCSK9 mRNA [4]) [%]	pIC50 (PCSK9 mRNA [5])	activity in vitro in primary monkey hepatocytes (PCSK9 mRNA [5])	IC50 (PCSK9 mRNA [5]) [nM]
AD-9314: unmodified parental PCSK9 siRNA, SEQ ID NO:1503/1504 (chain 1 rGrCrCrUrGrGrArGrUrUrUrArUrUrCrGrGrArAdT*dT; chain 2 rUrUrCrCrGrArArUrArArArCrUrCrCrArGrGrCdT*dT)	9	induced TNF-alpha	induce both IFN-alpha and TNF-alpha	Yes/Yes	Yes/Yes	induced IFN-alpha	induce both IFN-alpha and TNF-alpha	10.40	22	11	9.70 to 10.15	active in vitro	
AD-9736: PCSK9 siRNA which targets only human and monkey PCSK9 message; SEQ ID NO:1517/1518 (chain 1 AGGuGuAucuccuAGAcAcTsT; chain 2 GUGUCuAGGAGAuAcACCUTsT; as printed in the source, key not given here)				No/No	No/No			10.40	29	22	9.52 to 10.00		0.5
AD-10796: modified dsRNA, SEQ ID NO:1309/1310 (chain 1 rGmCmCmUrGrGrArGmUmUmUrAmUmUmCrGrGrArAdT*dT; chain 2 rUrUrCrCrGrArArUrArArArCrUrCrCrArGrGrCdT*dT)	13							10.00				active in vitro	0.1
AD-ctrl: control siRNA targeting luciferase; SEQ ID NO:1519/1520 (chain 1 mCmUmUrAmCrGmCmUrGrArGmUrAmCmUmUmCrGrAdT*dT; chain 2 rUrCrGrArArGmUrArCrUmCrArGrCrGmUrArArGdT*dT) [reference compound]				No/No	No/No								
